Source: patent publication US10393744B2, “Peptides for targeting colorectal cancer, and medical use thereof” (UNIVERSITY OF ULSAN FOUNDATION FOR INDUSTRY COOPERATION, priority 2014, dated 2019)

Key:
[1] = tested on: Radio-sensitive colorectal cancer tissue of patient (case C87); assay: In vivo/ex vivo imaging and phage elution of Cy5.5-labeled peptide-expressing phages in mouse model transplanted with patient's colorectal cancer tissue (Example 4); design: species or system nude mouse; conditions: for in vivo ROI: Cy5.5 fluorescence total flux standardized to Cy5.5 dye control; for pfu/mg (concentration of eluted phages relative to weight of cancer tissue) / ex vivo ROI: extracted cancer tissue; for ex vivo ROI: standardized to Cy5.5 dye control
Source text: (§1) Then, the distributed cancer tissue was kept in a specific preservative solution and transferred directly to an animal chamber, so as to maintain a state in which the cancer tissue was not separated from a patient yet. After an NOD/SCID mouse was anesthetized via intraperitoneal injection of anesthetics, the cancer tissue was cut into pieces each having a size of 3×3 mm. Next, each of both flanks of the NOD/SCID mouse was transplanted with a piece of the cut cancer tissues, and sutured. The NOD/SCID mouse was then recovered on a heating pad for about 2 hours (conditions of the preservative solution: HBSS containing 100 IU/ml penicillin, 100 μg/ml streptomycin, 100 μg/ml gentamicin, 2.5 μg/ml amphotericin B, and 5% fetal bovine serum). After completion of the transplantation, the NOD/SCID mouse was raised until tumors were formed. Meanwhile, the formation and growth of tumors were checked at least once a week. When the transplanted cancer tissues grew to a size of at least 500 mm^3, an extraction process was performed thereon. Then, the extracted cancer tissues were each cut into pieces each having a size of 3×3 mm for subculturing. A nude mouse was anesthetized via intraperitoneal injection of anesthetics, and a piece of the cut cancer tissues was transplanted subcutaneously on the right thigh of the nude mouse. A transplantation site was changed from the flank to the thigh so that irradiation can be locally done without affecting other organs during irradiation. That is, a finally used mouse model transplanted with a patient's colorectal cancer tissue in the present invention was a mouse model established in a way that a cancer tissue that underwent subculturing four times was re-transplanted to form a cancer tissue. When the size of the cancer tissue was increased to about 250 mm^3, only the cancer tissue was irradiated with 2 grays (Gy) of radiation. After having recovery time for no longer than 24 hours, in vivo peptide screening was performed. Here, a non-irradiated population, which is a control group, was also subjected to screening in a separate manner.
(§2) In detail, regarding in vivo imaging verification, the peptide-expressing phage was amplified, and a process of linking a fluorescent probe (Cy5.5) was performed. In particular, 1 μg/μl of N-hydroxysuccinimide esters of Cy5.5 (Amersham) was added to 1 mL of bicarbonate buffer (pH 8.3) having the phage concentration of 10^12 plaque forming units (pfu), and then, in a condition where a dark environment was maintained, a phage-surface protein was linked to the Cy5.5 fluorescent probe at room temperature for 3 hours. That is, amine groups of the phage-surface protein were chemically linked to N-hydroxysuccinimide esters of the Cy5.5 fluorescent probe via a covalent bond. The peptide-expressing phages to which the Cy5.5 fluorescent probe was linked were each obtained by precipitation with 170 μl of 20% (w/v) PEG 8000/2.5 M NaCl solution and purification. To determine a proportion of the Cy5.5 fluorescent probe linked to each of the finally obtained phage samples, an IVIS spectrum imaging system (Xenogen) was used for measurement, and region of interest (ROI) values were determined using the software program of a corresponding device.
(§3) In addition, on the last day of the in vivo imaging, the cancer tissues were each extracted, to thereby obtain ex vivo images thereof.

[2] = tested on: Radio-resistant colorectal cancer tissue of patient (case C65); assay: as above; design: species or system nude mouse; conditions: for in vivo ROI: Cy5.5 fluorescence total flux standardized to Cy5.5 dye control; for pfu/mg (concentration of eluted phages relative to weight of cancer tissue) / ex vivo ROI: extracted cancer tissue; for ex vivo ROI: standardized to Cy5.5 dye control
Source text: as §1, §2, §3

[3] = case C87, non-irradiated population
[4] = case C87, irradiated population (2 Gy)
[5] = case C65, non-irradiated population
[6] = case C65, irradiated population (2 Gy)

Substance	in vivo ROI [1, 3]	pfu/mg (concentration of eluted phages relative to weight of cancer tissue) [1, 3] [pfu/mg]	ex vivo ROI [1, 3]	in vivo ROI [2, 5]	pfu/mg (concentration of eluted phages relative to weight of cancer tissue) [2, 5] [pfu/mg]	ex vivo ROI [2, 5]	further results
MNFIQKN [E11]	1.05	4.43	0.34	–	–	–	–
NGNSNTL [F9]	–	–	–	–	–	–	in vivo ROI [1, 4]: 1.77; pfu/mg (concentration of eluted phages relative to weight of cancer tissue) [1, 4]: 95.24 pfu/mg; ex vivo ROI [1, 4]: 4.45
NTGSPYE [A2, 7-amino-acid loop peptide expressed on M13 phage, tested as Cy5.5-labeled phage]	1.13	1.55	0.77	2.04	181.48	1.61	in vivo ROI [1, 4]: 1.15; pfu/mg (concentration of eluted phages relative to weight of cancer tissue) [1, 4]: 4.75 pfu/mg; ex vivo ROI [1, 4]: 2.64
NTWMKSK [A11]	–	–	–	1.93	6.71	0.95	–
QLWQKEQ [F5]	–	–	–	–	–	–	in vivo ROI [1, 4]: 1.63; pfu/mg (concentration of eluted phages relative to weight of cancer tissue) [1, 4]: 144.55 pfu/mg; ex vivo ROI [1, 4]: 3.72
QQTKNYY [E7]	2.02	58.32	1.38	–	–	–	–
RSTGSSC [E16]	0.50	2.14	0.24	–	–	–	–
SFFPFST [F3]	–	–	–	–	–	–	in vivo ROI [1, 4]: 1.07; pfu/mg (concentration of eluted phages relative to weight of cancer tissue) [1, 4]: 22.31 pfu/mg; ex vivo ROI [1, 4]: 2.64
SHMEYPR [A1, 7-amino-acid loop peptide expressed on M13 phage, tested as Cy5.5-labeled phage]	1.68	74.12	1.72	1.77	136.36	1.27	in vivo ROI [2, 6]: 2.27; pfu/mg (concentration of eluted phages relative to weight of cancer tissue) [2, 6]: 230 pfu/mg; ex vivo ROI [2, 6]: 1.89
SNVYDHN [A3]	–	–	–	1.62	34.8	0.67	–
STEHTRS [A4]	–	–	–	3.20	264.86	1.83	–
STMNGKV [B1]	–	–	–	–	–	–	in vivo ROI [2, 6]: 1.52; pfu/mg (concentration of eluted phages relative to weight of cancer tissue) [2, 6]: 16.67 pfu/mg; ex vivo ROI [2, 6]: 1.48
SWGDRIL [A5]	–	–	–	2.16	51.38	1.52	–
TAFSLGK [E6]	0.78	4.24	0.77	–	–	–	–
TNPYPLD [F10]	–	–	–	–	–	–	in vivo ROI [1, 4]: 1.91; pfu/mg (concentration of eluted phages relative to weight of cancer tissue) [1, 4]: 7.86 pfu/mg; ex vivo ROI [1, 4]: 1.74
TVRSSAE [B3]	–	–	–	–	–	–	in vivo ROI [2, 6]: 2.38; pfu/mg (concentration of eluted phages relative to weight of cancer tissue) [2, 6]: 195.40 pfu/mg; ex vivo ROI [2, 6]: 1.63
TVRTSAV [E9]	1.27	86.40	1.20	–	–	–	–
VPSQKSK [B4]	–	–	–	–	–	–	in vivo ROI [2, 6]: 2.12; pfu/mg (concentration of eluted phages relative to weight of cancer tissue) [2, 6]: 20.62 pfu/mg; ex vivo ROI [2, 6]: 1.36
VQMPAHS [E4]	0.84	5.00	0.94	–	–	–	–
YVSKNNS [E17]	1.66	204.00	1.29	–	–	–	–
